In a melting point compilation (Tetko et al.; mined from patent text by program, amines drawn as free bases though some values may be those of a salt):

Row | melting point | SMILES
1 | 245 °C | COc1ccc(-c2n[nH]c(=O)c3cc(OC)ccc23)cc1
2 | 61 to 62 °C | CCOC(=O)/C(C)=C/c1ccc(OC(C)C)cc1Oc1ncc(C(F)(F)F)cc1Cl
3 | 196 to 197 °C | O=C(O)Cc1cncc(Cc2nc3c(F)c(F)cc(F)c3s2)c1
4 | 99 to 101 °C | O=C1N(Cc2ccc(OC(F)(F)F)cc2)c2ccccc2C12COc1cc3c(cc12)OCO3 (configuration not stated)
5 | 129 °C | Cc1ccc(C2CCCN2S(=O)(=O)c2ccc(Cl)cc2)cc1 (racemic)
6 | 106 to 110 °C | COc1nc(OC)nc(SC(C(=O)O)C2CCCC2)n1 (configuration not stated)
7 | 135 to 139 °C | CCCCC12CCC3C4=C(CCC3C1CCC2O)CC(OC)=CC4 (configuration not stated)
8 | 64 °C | CC(=O)c1ccc(C2CC(C)(C)CC(C)(C)C2)c(Cl)c1
9 | 283 to 284 °C | N#Cc1cc2cccc(NS(=O)(=O)c3cccs3)c2[nH]1
10 | 74.5 to 77 °C | CCOC(=O)c1ccc2snnc2c1
11 | 243 to 248 °C | N#Cc1nc(-c2ccc(=O)[nH]c2)c(-c2ccccc2)nc1N
12 | 116 °C | CC1(C)COc2ccc(C(F)(F)F)cc2C(O)(c2ccccn2)C1 (configuration not stated)
13 | 69 to 70 °C | CC(C)(C)C(=O)CC(=O)NC1CCCCC1
14 | 224 to 226 °C | N#Cc1cc(C(F)(F)F)ccc1Oc1cccc(C(=O)O)c1
15 | 221 to 222 °C | Cc1ccc(-c2ccc(-c3ccc(C)cc3)n2-c2ccc(O)cc2)cc1
16 | 124 to 127 °C | CCOC1=CC(=O)C(C(=O)OC)C(c2ccc(C)cc2)C1 (configuration not stated)
17 | 202 to 203 °C | FC(F)(F)c1cccc(-c2ccn3cnnc3n2)c1
18 | 83 °C | C=CCNc1nc(NCC(=C)C)c2scc(C)c2n1
19 | 112 to 115 °C | COc1ccc2c(c1)CCC1CCN(C)C(=O)C(CC3(C)OCCO3)=C21 (configuration not stated)
20 | 110 to 112 °C | O=C(Oc1ccccc1)n1c(=O)c(F)cn(C2CC(OCc3ccccc3)C(CO)O2)c1=O (configuration not stated)
21 | 132 to 134 °C | CC(C)(C)NC(=O)[C@@H]1[C@@H](OC(=O)c2ccccc2)CCN1C(=O)OC(C)(C)C
22 | 68 to 70 °C | CN(CC(O)c1cccc(OCc2ccccc2)c1)C(=O)c1cnc(N(C)C)nc1-c1ccc(Cl)c(Cl)c1 (configuration not stated)
23 | 113 to 114 °C | CC(=O)NC12CC3CC(C)(CC(C)(C3)C1)C2
24 | 108 to 110 °C | CCCCCCCCCCCCCCCCCCCNC(=O)C1CSC(c2cccnc2)N1 (configuration not stated)

Row | melting point | SMILES
25 | 104 to 106 °C | CC(C)OC(=O)C(C(=O)O)=C1SCCS1
26 | 218 to 220 °C | COc1cc(C(=O)O)c(C(=O)O)c(Cl)c1Cl
27 | 114 to 116 °C | COc1ccc(-c2ccc(OC)nn2)c(OCC(O)CNC(C)(C)C)c1 (configuration not stated)
28 | 207 to 209 °C | Cc1ccc(C(c2ccc(C)cc2)(c2ccc(C)cc2)c2ccc(C#N)cc2)cc1
29 | 79 to 80 °C | CCOC(=O)C(O)(CC(C)(C)c1ccc(OC)cc1)C(F)(F)F (configuration not stated)
30 | 133 to 134 °C | Cc1n[nH]c(C)c1Cc1cc(Cl)cc(Cl)c1
31 | 94 to 97 °C | Cc1noc(-c2nc(-c3c(F)cccc3F)nn2C)c1Cl
32 | 261 to 262 °C | O=C(O)c1ccc(Cl)c(Sc2ccccc2[N+](=O)[O-])c1
33 | 170 to 171 °C | Cn1c(N2CCOCC2)nc(C(=O)NCc2ccc(F)c(Cl)c2)c(O)c1=O
34 | 124 to 126 °C | CCCn1c(=O)c2[nH]c(CC(C)c3ccc(OCc4ccccc4)cc3)nc2n(CCC)c1=O (configuration not stated)
35 | 170 to 171 °C | COc1ccc(CC(SC)C(=O)O)cc1C(=O)NCc1ccc(C(F)(F)F)cc1 (configuration not stated)
36 | 61 to 63 °C | COC(=O)C(Cc1ccc(O)cc1)OC (configuration not stated)
37 | 67 °C | Cc1csc(C2=NOCCO2)c1Br
38 | 120 to 122 °C | O=C1CCN(c2ncc(-c3ccc(Cl)cc3Cl)nn2)CC1
39 | 127 to 130 °C | O=C(Cn1cc(Cc2ccccc2)cc(NC(=O)OCc2ccccc2)c1=O)NC(Cc1ccccc1)C(=O)C(F)(F)F (configuration not stated)
40 | 155 to 161 °C | CC(=O)OCC(C)C1CCC2C3CC=C4CC(OC5CCCCO5)CC(OC5CCCCO5)C4(C)C3CCC12C (configuration not stated)
41 | 84 to 87 °C | O=c1oc(-c2cccc(OC(F)F)c2)nc2ccccc12
42 | > 300 °C | O=C(Cc1ccccc1)Nc1cc(C(=O)O)cc(C(=O)O)c1
43 | 70 to 72 °C | COC(=O)c1cccc2c(C(=O)c3ccccc3)c(C)oc12
44 | > 300 °C | CCOc1nc(N2CCNCC2)nc2c1sc1nc(-c3ccc(C(O)CO)cc3)nc(C)c12 (configuration not stated)
45 | 245 to 247 °C | Cn1cccc1C(=O)Nc1nc(-c2cccc(C#N)c2)c(-n2cncn2)s1
46 | 177 to 189 °C | Nc1ccc2c(c1)COC2=O
47 | > 110 °C | CCCCc1nc(C(O)CCC)c(C(N)=O)n1Cc1ccc(-c2ccccc2C(=O)O)cc1 (configuration not stated)
48 | 291 to 292 °C | CC(=O)Nc1ccc(/C=C/C(=O)O)cn1

Row | melting point | SMILES
49 | 255 to 257 °C | COc1cc2nc(N)nc(-c3cc(-c4ccccc4)cc(-c4ccc(O)cc4)c3)c2cc1OC
50 | 100 to 102 °C | CC(C)N(C(=O)C(F)(F)F)c1cc2c(cc1C(=O)c1ccccc1)OCO2
51 | 154 °C | CC1(C2CCCC2)Cc2cc(OCCCC(=O)O)c(Cl)c(Cl)c2C1=O (configuration not stated)
52 | 183 to 186 °C | COc1ccc(N2CCN(c3c(C)c4c(c(C(C)O)c3C)OC(C)(C)C4)CC2)cc1 (configuration not stated)
53 | 127 to 135 °C | CSc1ccc(Br)c2c1C1=NOCC1C2 (configuration not stated)
54 | 49 to 50 °C | NC(=O)CNC(=O)c1ccnc(-c2cccc3sc(Cc4cccc(C(F)(F)F)c4)cc23)c1
55 | 35 °C | CCCCCCCCCCC[C@@H](C[C@@H]1OC(=O)[C@H]1CCCCCC)OCCC(N)=O
56 | 186 to 191 °C | COCCC(=O)c1cc2c(=O)n(NS(C)(=O)=O)c(=O)[nH]c2cc1C(F)(F)F
57 | 253 to 255 °C | COc1cnnc(O)c1
58 | 190 °C | CC(C)(C)OC(=O)N[C@@H](Cc1ccc(Cl)cc1)C(=O)NC1CCC(Nc2cccc3c2C(=O)c2ccccc2C3=O)CC1 (some centres not stated)
59 | 194 to 195 °C | c1ccc(-c2ccc3nc4c(nc3c2)-c2cccc3cccc-4c23)cc1
60 | 130 to 133 °C | C[C@]1(CN)COc2cccc(-c3ccccc3)c2O1
61 | 165 °C | CCOC(=O)c1cn(-c2ccc(F)cn2)c2nc(N3CC(C)NC(C)C3)c(F)cc2c1=O (configuration not stated)
62 | 251 °C | CCNC(=O)CC1CCN(Cc2cnc3cc(NC(=O)c4ccc(-c5ccc(F)cc5)cc4)c(C)cc3c2)CC1
63 | 108 °C | COc1ccc(/C=C/c2ccncc2)cc1OC1CCCC1
64 | 144 to 145 °C | Cc1cccc(COc2cccc(OCc3nc(-c4ccccc4)oc3C)c2)c1C(=O)O
65 | 119 to 121 °C | Cc1nc(C)n(-c2cc([C@@H]3C[C@H]3c3nc4ccccc4n3C)nc(C(N)=O)n2)n1 (relative stereo)
66 | > 340 °C | N=C(N)c1ccc(N2CCN(c3ccc(OCC(=O)O)cc3)CC2)cc1
67 | 145 to 147 °C | CNC(=O)n1cnc(C(=O)NC(C)(C)C)c1N
68 | 172 to 174 °C | CCOC(=O)c1cn2c(C)c(C)nc2c(O)c1CCC(=O)c1ccccc1
69 | 88 to 90 °C | C=CCn1cc(F)cnc1=O
70 | 160 °C | COc1cc2c(cc1OC)CN(CCCOc1ccc(NC(=O)c3cccc4c(=O)c5cccc(OC)c5[nH]c34)c(C)c1)CC2

Row | SMILES | melting point
71 | O=C(O)c1cc2ccccc2n1Cc1cc([N+](=O)[O-])cc2[nH]c(=O)c(=O)[nH]c12 | > 300 °C
72 | COc1ccc2c(c1O)N=CC1CCCN1C2=O (configuration not stated) | 150 to 153 °C
